The values that follow come from patent publication US7964531B2, “3-phenoxy-4-pyridazinol derivatives and herbicidal composition containing the same” (Mitsui Chemicals Agro, Inc., priority 2001, dated 2011).

As usually defined, the melting point is the temperature, or range, at which the solid turns liquid. In turn, `CCC(C)c1cccc(C)c1Oc1nnc(Cl)cc1O` (centres unmarked) [Compound No. 804, 3-(2-s-Butyl-6-methylphenoxy)-6-chloro-4-pyridazinol] had a melting point of 187 to 189 °C.
Under `Cc1cccc(C(C)(C)C)c1Oc1nnc(Cl)cc1O` [Compound No. 805, 3-(2-tert-Butyl-6-methylphenoxy)-6-chloro-4-pyridazinol] stands 135 to 136 °C; under `Cc1cccc(C2CC2(Cl)Cl)c1Oc1nnc(Cl)cc1O` (centres unmarked) [Compound No. 827, 6-Chloro-3-[2-(2,2-dichlorocyclopropyl)-6-methylphenoxy]-4-pyridazinol], 213 to 215 °C.
`CCc1cccc(CC)c1Oc1nnc(Cl)cc1O` [Compound No. 846, 6-Chloro-3-(2,6-diethylphenoxy)-4-pyridazinol] displayed a melting point of 181 to 185 °C.
Then `CCCc1cccc(CCC)c1Oc1nnc(Cl)cc1O` [Compound No. 890, 6-Chloro-3-(2,6-dipropylphenoxy)-4-pyridazinol], with 191 to 193 °C; and `CC(C)c1cccc(C2CC2)c1Oc1nnc(Cl)cc1O` [Compound No. 896, 6-Chloro-3-(2-cyclopropyl-6-isopropylphenoxy)-4-pyridazinol], with 242 to 245 °C.
Under `CC(C)c1cccc([N+](=O)[O-])c1Oc1nnc(Cl)cc1O` [Compound No. 911, 6-Chloro-3-(2-isopropyl-6-nitrophenoxy)-4-pyridazinol] stands 205 to 209 °C; under `CC(C)(C)c1cccc(C2CC2)c1Oc1nnc(Cl)cc1O` [Compound No. 914, 3-(2-tert-Butyl-6-cyclopropylphenoxy)-6-chloro-4-pyridazinol], 230 to 231 °C.
Then `Oc1cc(Cl)nnc1Oc1c(C2CC2)cccc1C1CC1` [Compound No. 931, 6-Chloro-3-(2,6-dicyclopropylphenoxy)-4-pyridazinol], with 232 to 234 °C; and `COc1cccc(C2CC2)c1Oc1nnc(Cl)cc1O` [Compound No. 964, 6-Chloro-3-(2-cyclopropyl-6-methoxyphenoxy)-4-pyridazinol], with 194 to 199 °C.
`CCOc1cccc(C2CC2)c1Oc1nnc(Cl)cc1O` [Compound No. 965, 6-Chloro-3-(2-cyclopropyl-6-ethoxyphenoxy)-4-pyridazinol] came in with a melting point of 174 to 179 °C.
Under `C/C=C/c1cccc(/C=C/C)c1Oc1nnc(Cl)cc1O` [Compound No. 979, 6-Chloro-3-{2,6-di[(1E)-1-propenyl]phenoxy}-4-pyridazinol] stands 163 to 164 °C; under `C=CCc1cccc(CC=C)c1Oc1nnc(Cl)cc1O` [Compound No. 982, 6-Chloro-3-(2,6-diallylphenoxy)-4-pyridazinol], 131 to 135 °C.
Under `COc1cccc(OC)c1Oc1nnc(Cl)cc1O` [Compound No. 987, 6-Chloro-3-(2,6-dimethoxyphenoxy)-4-pyridazinol] stands 199 to 201 °C.
Under `Cc1cc(C)cc(Oc2nnc(Cl)cc2O)c1` [Compound No. 998, 6-Chloro-3-(3,5-dimethylphenoxy)-4-pyridazinol] stands 178 to 182 °C.
Take `Cc1cc(Oc2nnc(Cl)cc2O)cc(C(C)C)c1` [Compound No. 1000, 6-Chloro-3-(3-isopropyl-5-methylphenoxy)-4-pyridazinol]: the melting point lay within 204 to 206 °C.
Under `CC(C)c1cc(Oc2nnc(Cl)cc2O)cc(C(C)C)c1` [Compound No. 1007, 6-Chloro-3-(3,5-diisopropylphenoxy)-4-pyridazinol] stands 249 to 253 °C.
Under `Oc1cc(Cl)nnc1Oc1cc(C(F)(F)F)cc(C(F)(F)F)c1` [Compound No. 1009, 3-[3,5-Bis(trifluoromethyl)phenoxy]-6-chloro-4-pyridazinol] stands 237 to 242 °C.
Under `Cc1cc(C)c(Br)c(Oc2nnc(Cl)cc2O)c1` [Compound No. 1013, 3-(2-Bromo-3,5-dimethylphenoxy)-6-chloro-4-pyridazinol] stands 240 to 244 °C.
`Cc1cc(C)c(C)c(Oc2nnc(Cl)cc2O)c1` [Compound No. 1016, 6-Chloro-3-(2,3,5-trimethylphenoxy)-4-pyridazinol] registered a melting point of 223 to 224 °C.
In turn, `Cc1cc(C)c(C2CC2)c(Oc2nnc(Cl)cc2O)c1` [Compound No. 1023, 6-Chloro-3-(2-cyclopropyl-3,5-dimethylphenoxy)-4-pyridazinol] gave a melting point of 200 to 203 °C.
Then `CSc1c(C)cc(C)cc1Oc1nnc(Cl)cc1O` [Compound No. 1027, 6-Chloro-3-[3,5-dimethyl-2-(methylsulfanyl)phenoxy]-4-pyridazinol], with 213 to 214 °C; and `Cc1ccc(C)c(Oc2nnc(Cl)cc2O)c1Br` [Compound No. 1040, 3-(2-Bromo-3,6-dimethylphenoxy)-6-chloro-4-pyridazinol], with 255 to 257 °C.
`Cc1c(F)ccc(C2CC2)c1Oc1nnc(Cl)cc1O` [Compound No. 1052, 6-Chloro-3-(6-cyclopropyl-3-fluoro-2-methylphenoxy)-4-pyridazinol] showed a melting point of 230 to 231 °C.
Regarding `Cc1c(Cl)ccc(Br)c1Oc1nnc(Cl)cc1O` [Compound No. 1053, 3-(6-Bromo-3-chloro-2-methylphenoxy)-6-chloro-4-pyridazinol], the melting point lay in the range of 254 to 260 °C.
Under `Cc1ccc(Br)c(Oc2nnc(Cl)cc2O)c1C` [Compound No. 1058, 3-(6-Bromo-2,3-dimethylphenoxy)-6-chloro-4-pyridazinol] stands 263 to 268 °C.
Then `Cc1ccc(C2CC2)c(Oc2nnc(Cl)cc2O)c1C` [Compound No. 1061, 6-Chloro-3-(6-cyclopropyl-2,3-dimethylphenoxy)-4-pyridazinol], with 229 to 234 °C; and `COc1ccc(Br)c(Oc2nnc(Cl)cc2O)c1C` [Compound No. 1066, 3-(6-Bromo-3-methoxy-2-methylphenoxy)-6-chloro-4-pyridazinol], with 246 to 253 °C.
Under `COc1ccc(C2CC2)c(Oc2nnc(Cl)cc2O)c1C` [Compound No. 1069, 6-Chloro-3-(6-cyclopropyl-3-methoxy-2-methylphenoxy)-4-pyridazinol] stands 250 to 253 °C; under `Cc1ccc(C)c(C2CC2)c1Oc1nnc(Cl)cc1O` [Compound No. 1073, 6-Chloro-3-(2-cyclopropyl-3,6-dimethylphenoxy)-4-pyridazinol], 171 to 175 °C.
On to `C=CCc1c(OC)ccc(CC)c1Oc1nnc(Cl)cc1O` [Compound No. 1080, 3-(2-Allyl-6-ethyl-3-methoxyphenoxy)-6-chloro-4-pyridazinol], for which the melting point lay within 183 to 186 °C.
In the case of `Cc1ccc2c(c1Oc1nnc(Cl)cc1O)CCC2` [Compound No. 1088, 6-Chloro-3-[(5-methyl-2,3-dihydro-1H-inden-4-yl)oxy]-4-pyridazinol], the melting point fell in the range of 222 to 225 °C.
Under `CCc1ccc2c(c1Oc1nnc(Cl)cc1O)CCC2` [Compound No. 1089, 6-Chloro-3-[(5-ethyl-2,3-dihydro-1H-inden-4-yl)oxy]-4-pyridazinol] stands 193 to 196 °C; under `Oc1cc(Cl)nnc1Oc1c(C2CC2)ccc2c1CCC2` [Compound No. 1091, 6-Chloro-3-[(5-cyclopropyl-2,3-dihydro-1H-inden-4-yl)oxy]-4-pyridazinol], 218 to 220 °C.
Under `Cc1ccc2c(c1Oc1nnc(Cl)cc1O)OCC2` [Compound No. 1096, 6-Chloro-3-[(6-methyl-2,3-dihydro-1-benzofuran-7-yl)oxy]-4-pyridazinol] stands 217 to 219 °C; under `Oc1cc(Cl)nnc1Oc1c(C2CC2)ccc2ccoc12` [Compound No. 1102, 6-Chloro-3-[(6-cyclopropyl-1-benzofuran-7-yl)oxy]-4-pyridazinol], 175 to 180 °C.
Then `Cc1ccc2occc2c1Oc1nnc(Cl)cc1O` [Compound No. 1109, 6-Chloro-3-[(5-methyl-1-benzofuran-4-yl)oxy]-4-pyridazinol], with 222 to 225 °C; and `Cc1cc(Br)c(C)c(Br)c1Oc1nnc(Cl)cc1O` [Compound No. 1118, 6-Chloro-3-(2,4-dibromo-3,6-dimethylphenoxy)-4-pyridazinol], with 241 to 248 °C; and `Cc1cc(C)c(Oc2nnc(Cl)cc2O)c(Br)c1` [Compound No. 1119, 3-(2-Bromo-4,6-dimethylphenoxy)-6-chloro-4-pyridazinol], with 254 to 256 °C.
In turn, `CCc1cc(I)cc(I)c1Oc1nnc(Cl)cc1O` [Compound No. 1120, 6-Chloro-3-(2-ethyl-4,6-diiodophenoxy)-4-pyridazinol] returned a melting point of 142 to 144 °C.
Under `Cc1cc(C)c(Oc2nnc(Cl)cc2O)c(C)c1` [Compound No. 1122, 6-Chloro-3-(2,4,6-trimethylphenoxy)-4-pyridazinol] stands 235 to 239 °C; under `Cc1cc(C)c(Oc2nnc(Cl)cc2O)c(C2CC2)c1` [Compound No. 1123, 6-Chloro-3-(2-cyclopropyl-4,6-dimethylphenoxy)-4-pyridazinol], 215 to 217 °C; under `Cc1cc(C)c(Br)c(Oc2nnc(Cl)cc2O)c1C` [Compound No. 1124, 3-(2-Bromo-3,5,6-trimethylphenoxy)-6-chloro-4-pyridazinol], 280 to 290 °C.
Then `Cc1cc(C)c(C)c(Oc2nnc(Cl)cc2O)c1C` [Compound No. 1125, 6-Chloro-3-(2,3,5,6-tetramethylphenoxy)-4-pyridazinol], with 278 to 283 °C.
Then `Cc1cc(C)c(C2CC2)c(Oc2nnc(Cl)cc2O)c1C` [Compound No. 1126, 6-Chloro-3-(2-cyclopropyl-3,5,6-trimethylphenoxy)-4-pyridazinol], with 212 to 219 °C; and `COc1c(C)cc(C)c(C)c1Oc1nnc(Cl)cc1O` [Compound No. 1128, 6-Chloro-3-(2-methoxy-3,5,6-trimethylphenoxy)-4-pyridazinol], with 209 to 210 °C; and `Cc1cc2c(c(Oc3nnc(Cl)cc3O)c1C)CCC2` [Compound No. 1129, 6-Chloro-3-[(5,6-dimethyl-2,3-dihydro-1H-inden-4-yl)oxy]-4-pyridazinol], with 210 to 213 °C.
